Legend:
BTK = BTK (Homo sapiens, UniProt Q06187); conditions: reported, U.S. Pat. No. 6,303,652; cited from earlier work
[1] = test system: hepatic markers (ALB, AFP, CYP3A4, CYP7A1, PGC1a); experiment: Real-time PCR mRNA expression of hepatic markers in differentiated hESCs; format: cell-based, human; conditions: collagen coated plates with or without Matrigel overlay (FIG. 11)
Procedure: The effect of LFM-A13 on rifampicin-induced CYP3A4 activity and on mRNA expression of a variety of hepatic markers is also determined on the differentiated hESCs. […] In FIG. 11, ALB is albumin, AFP is alpha-fetoprotein, CYP3A4 is cytochrome p450 3A4, CYP7A1 is cytochrome p450 7A1, and PGC1a is […] (COL=collagen I coated plate; MOL=Matrigel overlay).

[2] = test system: human embryonic stem cells (hESCs) derived hepatocytes; experiment: Immunostaining of hepatic markers in hESC derived hepatocytes; format: cell-based; conditions: Corning hepatocyte medium, 10 μM, 7 days, versus absence (FIG. 9)
Procedure: The effects of LFM-A13 on human embryonic stem cells (hESCs) derived hepatocytes are evaluated. Briefly, hESCs are committed to the hepatocyte lineage using methods known to those skilled in the art and then are cultured in Corning hepatocyte medium in the presence or absence of 10 μM LFM-A13. After 7 days, the stem cell derived hepatocytes are immunostained with primary antibodies to detect expression of hepatocyte proteins; (b) to test for the presence of albumin (ALB), a hepatic precursor marker; and (c) to test for the presence of multidrug resistance-associated protein 2 (MRP2), a member of the superfamily of ATP-binding cassette (ABC) transporters and a marker for hepatic function. Nuclei of cells are counterestained with 4′,6-diamidino-2-phenylindole dihydrochloride (DAPI) to visualize all cells (FIG. a). As depicted, hESCs cultured in the absence of LFM-A13 (left column) have low levels of hepatic markers (ALB and MRP2). In contrast, hESCs cultured in the presence of LFM-A13 (right column) have higher levels of hepatic markers (ALB and MRP2).

[3] = test system: mRNA for drug metabolism enzymes and hepatic proteins; experiment: Relative mRNA levels by real-time PCR in primary human hepatocytes; format: cell-based; conditions: 10 μM
Procedure: The effects of LEF, LFM, and LFM-A13 on gene expression are tested. Briefly, primary human hepatocytes cultured on collagen I coated surface are incubated with Corning hepatocyte medium containing vehicle control, 10 μM LEF, 10 μM LFM, and 10 μM LFM-A13, respectively. At the end of 48-hour incubation, total RNA is isolated and relative mRNA levels are quantified using real-time PCR. The results are shown in FIG. 6, where CYP is cytochrome P450 enzyme, SULT is sulfotransferase, UGT is UDP-glucuronosyltransferase, ABC is ATP-binding cassette transporters, AHR is aryl hydrocarbon receptor, CAR is constitutive androstene receptor, and PXR is pregnenolone x-receptor.
The effect of LFMA-13 on levels of mRNA encoding a wider variety of drug metabolism enzymes and other proteins of primary human hepatocytes is tested. Briefly, primary human hepatocytes cultured on collagen I coated surface are incubated with Corning hepatocyte medium containing vehicle control and 10 μM LFM-A13, respectively. At the end of 48-hour incubation, total RNA is isolated and relative mRNA levels are quantified using real-time PCR. The results are shown in FIG. 7, where ABC is ATP-binding cassette transporters, CYP is cytochrome P450 enzyme, SLC is solute carrier transporter, SULT is sulfotransferase, UGT is UDP-glucuronosyltransferase, GST is glutathione S-transferase, AHR is aryl hydrocarbon receptor, FOXO is forkhead box receptors, HNF is hepatic nuclear factor, NCO is nuclear receptor coactivator, NR is nuclear receptor, PPARGC1A is peroxisome proliferator-activated receptor gamma coactivator 1-alpha, RXR is retinoid X receptor, and VDR is vitamin D receptor.

Polo-like kinase (PLK) = conditions: stated as known; cited from earlier work
liver cells = experiment: Drug metabolism activity / global hepatic function of liver cells with other BTK inhibitors and PLK siRNA; format: cell-based
Excerpt: […] The broad enhancement of hepatic function seen with LFM-A13 is not observed with these structurally unrelated BTK inhibitors.

Sequence of BTK (Q06187 whole entry, species assumed): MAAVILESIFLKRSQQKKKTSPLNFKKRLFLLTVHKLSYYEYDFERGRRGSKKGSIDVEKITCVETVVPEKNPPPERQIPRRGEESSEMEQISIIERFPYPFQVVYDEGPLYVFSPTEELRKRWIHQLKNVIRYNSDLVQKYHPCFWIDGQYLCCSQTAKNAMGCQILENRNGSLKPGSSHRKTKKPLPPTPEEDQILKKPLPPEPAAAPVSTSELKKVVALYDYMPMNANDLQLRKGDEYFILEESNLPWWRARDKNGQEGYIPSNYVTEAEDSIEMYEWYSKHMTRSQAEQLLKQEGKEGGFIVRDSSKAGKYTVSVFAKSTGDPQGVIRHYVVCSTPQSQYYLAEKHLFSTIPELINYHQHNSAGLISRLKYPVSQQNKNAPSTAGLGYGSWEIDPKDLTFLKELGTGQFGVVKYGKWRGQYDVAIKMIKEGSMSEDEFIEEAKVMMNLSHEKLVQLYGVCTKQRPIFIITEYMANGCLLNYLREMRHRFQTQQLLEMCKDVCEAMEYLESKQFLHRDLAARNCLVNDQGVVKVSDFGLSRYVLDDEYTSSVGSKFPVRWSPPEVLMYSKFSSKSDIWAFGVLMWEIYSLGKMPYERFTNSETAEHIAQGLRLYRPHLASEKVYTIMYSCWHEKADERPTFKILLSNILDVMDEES

Row | Structure (SMILES) | BTK inhibition (BTK) | expression of hepatic markers (mRNA) [1] | level of hepatic marker MRP2, immunostaining [2] | level of hepatic marker albumin (ALB), immunostaining [2] | AHR mRNA level ([3]; 48 h (FIG. 6)) | CYP1A2 mRNA level ([3]; 48 h (FIG. 6)) | CYP2B6 mRNA level ([3]; 48 h (FIG. 6)) | CYP3A4 mRNA level ([3]; 48 h (FIG. 6)) | UGT1A1 mRNA level ([3]; 48 h (FIG. 6)) | mRNA levels of some of the ABC transporters ([3]; 48 h (FIG. 6)) | mRNA levels of a wide variety of drug metabolism enzymes, including many CYPs ([3]; 48 h (FIG. 7)) | PLK inhibition (Polo-like kinase (PLK)) | broad enhancement of hepatic function / global hepatic enhancement (liver cells)
1 | C/C(O)=C(/C#N)C(=O)Nc1cc(Br)ccc1Br [LFM-A13, α-Cyano-β-Hydroxy-β-Methyl-N-(2,5-Dibrobophenyl)Propenamide] | potent BTK inhibitor | enhanced expression | higher levels | higher levels | greatly increased | greatly increased | greatly increased | greatly increased | greatly increased | greatly increased | increased levels | Polo-like kinase (PLK) inhibitor | –
2 | CC1=C(O)C(=O)[C@@H]2O[C@@H]2C1=O [Terreic acid] | – | – | – | – | – | – | – | – | – | – | – | – | not observed

— US10876096B2, “Cell culture medium for enhanced hepatocyte function” (Corning Incorporated, priority 2012, dated 2020)
